Data: paper PMC10095442, “Intelligent De Novo Design of Novel Antimicrobial Peptides against Antibiotic-Resistant Bacteria Strains” (International Journal of Molecular Sciences, 2023)
Residues, ends and D or L forms follow the SMILES beside them.

Columns and labels:
[1] = tested on: methicillin-resistant S. aureus (N07-10-0043); type: cell-based, Staphylococcus aureus; details: S. aureus MRSA N07-10-0043 (methicillin-resistant clinical isolate); L.B. medium, approx. 10^5 CFU/mL, overnight incubation; at least three times
Experimental: (§1) MIC assays were conducted to determine the antibacterial spectrum of these peptides. MIC is defined as the minimum concentration of a reagent, viz., peptide, in this study, required to inhibit bacterial growth after overnight incubation. Microbial strains were cultured in an L.B. medium, and midlogarithmic-phase organisms were used in the antibacterial assays. All bacteria were inoculated in an L.B. medium (approximately 10^5 CFU/mL), and MIC assays were performed with various concentrations of each peptide. All activity measurements were conducted at least three times.

[2] = tested on: methicillin-susceptible S. aureus (S01-10-0202); type: cell-based, Staphylococcus aureus; details: methicillin-susceptible (S01-10-0202)
Experimental: as §1

[3] = tested on: carbapenem-resistant P. aeruginosa (M06-06-0213); type: cell-based, Pseudomonas aeruginosa; details: P. aeruginosa M06-06-0213 (carbapenem-resistant clinical isolate); L.B. medium, approx. 10^5 CFU/mL, overnight incubation; at least three times
Experimental: as §1

[4] = tested on: carbapenem-susceptible P. aeruginosa (S07-10-0059); type: cell-based, Pseudomonas aeruginosa; details: carbapenem-susceptible (S07-10-0059)
Experimental: as §1

Measured: Antibacterial activity (MIC)

CC(C)[C@@H]1NC(=O)[C@H](CCCNC(=N)N)NC(=O)[C@H](Cc2ccccc2)NC(=O)[C@@H](NC(=O)[C@H](Cc2c[nH]c3ccccc23)NC(=O)[C@H](CCCNC(=N)N)NC(=O)[C@@H](N)CCCNC(=N)N)CSSC[C@@H](C(=O)N[C@@H](CCCNC(=N)N)C(N)=O)NC(=O)[C@H](CCCCN)NC(=O)[C@H](CCCNC(=N)N)NC(=O)[C@H](Cc2ccc(O)cc2)NC(=O)[C@@H]2CSSC[C@H](NC1=O)C(=O)N[C@@H](Cc1ccc(O)cc1)C(=O)N[C@@H](CCCNC(=N)N)C(=O)NCC(=O)N[C@@H](Cc1ccccc1)C(=O)N2 [polyphemusin I] (HELM PEPTIDE1{R.R.W.C.F.R.V.C.Y.R.G.F.C.Y.R.K.C.R.[am]}$PEPTIDE1,PEPTIDE1,4:R3-17:R3|PEPTIDE1,PEPTIDE1,8:R3-13:R3$$$V2.0; N-terminus and C-terminus assumed)
>50 µg/mL: [1] | [2] | [3] | [4]
